Assay type in all cases: physicochemical
Data set [1] can be described thus: Reducing power (DE, Somogyi-Nelson method). On the procedure: A reagent grade maltotetraose (purity 97.0% or higher), commercialized by Hayashibara Biochemical Laboratories Inc., Okayama, Japan, was prepared into 20% solution and admixed with two units/g-saccharide of non-reducing saccharide-forming enzyme, disclosed in Japanese Patent No. 44695/81, and followed enzymatic reaction at 46° C. for 48 hours, and the saccharide solution containing 79.8% of α-maltosyl α,α-trehalose, d.s.b., was obtained. After adjusting the pH to 6.0, the saccharide solution was admixed with 10 units/g-saccharide of β-amylase, commercialized by Nagase & Co., Ltd., Osaka, Japan, and followed enzymatic reaction at 50° C. for 48 hours to hydrolyze maltotetraose. After autoclaving at 120° C. for 10 minutes, the reaction mixture was cooled and filtrated. The resulting filtrate was subjected to a column chromatography using “XT-1016 (Na^+-form, degree of crosslinking 4%)”, a strong acid cation-exchanger resin commercialized by Rohm and Hass Japan K.K., Fukushima, Japan, and collected α-maltosyl α,α-trehalose high content fractions. The saccharide solution was purified, concentrated, and spray-dried to prepare an amorphous powdery α-maltosyl α,α-trehalose high content base for the powderization.

A short description of data set [2]: Solubility in water of the product.
Data set [3] is described as follows: Hygroscopicity of the product.

For the molecule `OC[C@H]1O[C@H](O[C@H]2O[C@H](CO)[C@@H](O[C@H]3O[C@H](CO)[C@@H](O[C@H]4O[C@H](CO)[C@@H](O)[C@H](O)[C@H]4O)[C@H](O)[C@H]3O)[C@H](O)[C@H]2O)[C@H](O)[C@@H](O)[C@@H]1O` [Example A-5, α-maltosyl α,α-trehalose], the reducibility entry in data set [1] was “no reducibility”. Also, in data set [1] (Somogyi-Nelson method), the reducing power result is given as “less than the detection limit”. In addition, in data set [2], the solubility in water result is “satisfactory”. Further, the hygroscopicity result in data set [3] is “low”.

(Values after patent publication US20060177553A1, “Method of powdering nonsugar component and powdering base” (priority 2003, published 2006).)
